# From patent US6326380A, “Thrombin receptor antagonists” (Schering Corporation, priority 2000, dated 2001)
# Read-outs that look alike come from different tables or passages of the source.
# Legend:
# Thrombin receptor = molecular target: T1, Thrombin receptor (Homo sapiens, UniProt P25116); experiment: In vitro Thrombin Receptor Antagonist Assay ([3H]haTRAP radioligand binding, platelet membranes); conditions: [3H]haTRAP 10 nM, read-out: IC50 (concentration at which a 50% inhibition of thrombin receptor was observed)
# T1 construct: Platelet membranes were prepared using a modification of the method of Natarajan et al; tissue North Jersey Blood Center (East Orange, N.J.); host or cells: platelets (platelet concentrates), membranes
# T1 sequence (P25116 22-425): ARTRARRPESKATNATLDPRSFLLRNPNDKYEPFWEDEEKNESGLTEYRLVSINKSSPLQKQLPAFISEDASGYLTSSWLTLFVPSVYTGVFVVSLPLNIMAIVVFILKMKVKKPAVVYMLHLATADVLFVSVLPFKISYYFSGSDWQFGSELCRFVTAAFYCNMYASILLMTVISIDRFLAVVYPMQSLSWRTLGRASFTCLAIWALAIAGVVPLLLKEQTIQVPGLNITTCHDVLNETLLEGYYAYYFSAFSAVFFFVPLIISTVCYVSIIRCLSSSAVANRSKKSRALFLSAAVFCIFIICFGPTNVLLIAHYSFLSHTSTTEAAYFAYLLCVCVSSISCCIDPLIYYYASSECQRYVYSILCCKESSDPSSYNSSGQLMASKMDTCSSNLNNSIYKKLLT
# Procedure: In Vitro Testing Procedure for Thrombin Receptor Antagonists:
# Preparation of [^3 H]haTRAP
# The vessel was attached to the tritium line, frozen in liquid nitrogen and evacuated. […] At the completion of the reaction, the excess tritium was removed and the reacted peptide solution was diluted with DMF (0.5 ml) and filtered to remove the catalyst. The collected DMF solution of the crude peptide was diluted with water and freeze dried to remove the labile tritium. The solid peptide was redissolved in water and the freeze drying process repeated. The tritiated peptide ([^3 H]haTRAP) was dissolved in 0.5 ml of 0.1% aqueous TFA and purified by HPLC using the following conditions: column, Vydac C18, 25 cm×9.4 mm I.D.; mobile phase, (A) 0.1% TFA in water, (B) 0.1% TFA in CH3 CN; gradient, (A/B) from 100/0 to 40/60 over 30 min; flow rate, 5 ml/min; detection, UV at 215 nm.
# Preparation of platelet membranes
# All steps were carried out at 4° C. under approved biohazard safety conditions. Platelets were centrifuged at 100×g for 20 minutes at 4° C. to remove red cells. The supernatants were decanted and centrifuged at 3000×g for 15 minutes to pellet platelets. Platelets were resuspended in 10 mM Tris-HCl, pH 7.5,150 mM NaCl, 5 mM EDTA, to a total volume of 200 ml and centrifuged at 4400×g for 10 minutes. This step was repeated two additional times. Platelets were resuspended in 5 mM Tris-HCl, pH 7.5, 5 mM EDTA to a final volume of approximately 30 ml and were homogenized with 20 strokes in a Dounce homogenizer. Membranes were pelleted at 41,000×g, resuspended in 40-50 ml 20 mM Tris-HCl, pH 7.5,1 mM EDTA, 0.1 mM dithiothreitol, and 10 ml aliquots were frozen in liquid N2 and stored at -80° C. To complete membrane preparation, aliquots were thawed, pooled, and homogenized with 5 strokes of a Dounce homogenizer. Membranes were pelleted and washed 3 times in 10 mM triethanolamine-HCl, pH 7.4, 5 mM EDTA, and resuspended in 20-25 ml 50 mM Tris-HCl, pH 7.5, 10 mM MgCl2, 1 mM EGTA, and 1% DMSO. Aliquots of membranes were frozen in liquid N2 and stored at -80° C.
# High Throughput Thrombin Receptor Radioligand Binding Assay
# Stock solutions (10 mM in 100% DMSO) of test compounds were further diluted in 100% DMSO. Unless otherwise indicated, 10 μl of diluted compound solutions and 90 μl of radioligand (a final concentration of 10 nM in 5% DMSO) were added to each well, and the reaction was started by the addition of 100 μl of membranes (40 μg protein/well). […] Compounds were tested at three concentrations (0.1, 1 and 10 μM). The plates were covered and vortex-mixed gently on a Lab-Line Titer Plate Shaker for 1 hour at room temperature. Packard UniFilter GF/C filter plates were soaked for at least 1 hour in 0.1% polyethyleneimine. The incubated membranes were harvested using a Packard FilterMate Universal Harvester and were rapidly washed four times with 300 μl ice cold 50 mM Tris-HCl, pH 7.5, 10 mM MgCl2, 1 mM EGTA. MicroScint 20 scintillation cocktail (25 μl) was added to each well, and the plates were counted in a Packard TopCount Microplate Scintillation Counter. The specific binding was defined as the total binding minus the nonspecific binding observed in the presence of excess (50 μM) unlabeled haTRAP. The % inhibition by a compound of [^3 H]haTRAP binding to thrombin receptors was calculated from the following relationship: […]
# A(pF-F)R(ChA)(hR)Y--NH2 and A(pF-F)R(ChA)(hR)(I2 -Y)--NH2, were custom synthesized by AnaSpec Inc. (San Jose, Calif.). […] The gas was subsequently loaded and stored on an IN/US Systems Inc. Trisorber.
# [1] = tested on: platelet aggregation (platelets, haTRAP or thrombin); experiment: In vitro Platelet Aggregation Inhibition (PAI); assay type: cell-based; conditions: Homo sapiens, read-out: In vitro PAI IC50
# Procedure: In vitro Platelet Aggregation Procedure:
# Blood was obtained from healthy human subjects who were aspirin free for at least 7 days by venipuncture using ACD as anticoagulant. Platelet rich plasma was prepared by centrifugation at 100×g for 15 minutes at 15 deg C. Platelets were pelleted at 3000×g and washed twice in buffered saline containing 1 mM EGTA and 20 μg/ml apyrase to inhibit aggregation. Aggregation was performed at room temperature in buffered saline supplemented with 0.2 mg/ml human fibrinogen. Test compound and platelets were preincubated in 96-well flat-bottom plates for 60 minutes. Aggregation was initiated by adding 0.3 μM haTRAP or 0.1 U/ml thrombin and rapidly vortexing the mixture using a Lab Line Titer Plate Shaker (speed 7). Percent aggregation was monitored as increasing light transmittance at 405 nm in a Spectromax Plate Reader.
# [2] = tested on: platelet aggregation (Whole Blood, haTRAP); experiment: Ex-vivo Platelet Aggregation In Cynomolgus Whole Blood; parameters: species or system cynomolgus monkey
# Procedure: Protocol For Ex-Vivo Platelet Aggregation In Cynomolgus Whole Blood Drug administration and blood collection:
# Conscious chaired cynomolgus monkeys are allowed to equilibrate for 30 min. A needle catheter is inserted into a brachial vein for infusion of test drugs. Another needle catheter is inserted into the other brachial or saphenous vein and used for blood sampling. In those experiments where the compound is administered orally only one catheter is used. A baseline blood sample (1-2 ml) is collected in vacutainer tubes containing a thrombin inhibitor CVS 2139 (100 μg/0.1 ml saline) as an anticoaculant. The drug is then infused intravenously over a period of 30 min. Blood samples (1 ml) are collected at 5, 10, 20, 30 min during and 30, 60, 90 min after termination of the drug infusion. In PO experiments the animals are dosed with the drug using a gavage cannula. Blood samples are collected at 0, 30, 60, 90, 120, 180, 240, 300, 360 min after dosing. […]
# A 0.5 ml blood sample is added to 0.5 ml of saline and warmed to 37° C. in a Chronolog whole blood aggregometer. […] The agonist (haTRAP) is added by an adjustable volume pipette (5-25 μl) and the aggregation curve is recorded for 10 minutes. Maximum aggregation in 6 minutes following agonist is the value recorded.
# [3] = 0.3 μM haTRAP or 0.1 U/ml thrombin, 60 min preincubation
structure (smiles),measurement,setting,value
CNC(=O)C1Cc2ccccc2C(C=Cc2ccc(-c3cccc(C(F)(F)F)c3)cn2)C1CO (stereo not shown) [Example 7],IC50,Thrombin receptor,1140 nM
"CCc1cccc(/C=C/[C@H]2[C@@H]3CCCC[C@H]3C[C@H]3C(=O)O[C@H](C)[C@@H]23)n1 [Example 8, (+)-(3R,3aS,4S,4aR,8aS,9aR)-Decahydro-4-[(E)-2-(6-ethyl-2-pyridinyl)ethenyl]-3-methylnaphtho[2,3-c]furan-1(3H)-one]",IC50,[1],300 nM
same,Ex-vivo C. Monkey Whole Blood PAI,"[2]; 10 mpk, i.v. infusion over 30 min. in 5% dextrose",100%
C[C@H]1OC(=O)[C@@H]2C[C@@H]3CCCC[C@H]3[C@H](/C=C/c3ccc(-c4cccc5c4OCO5)cn3)[C@H]12 [Example 1DR],IC50,[1]; [3],100 nM
O=C1OCC2C1Cc1ccccc1C2C=Cc1ccc(-c2cccc(C(F)(F)F)c2)cn1 (stereo not shown) [Example 3K],IC50,Thrombin receptor,10 nM
Cc1cc(C)nc(/C=C/[C@@H]2[C@H]3CCCC[C@@H]3C[C@@H]3C(=O)O[C@@H](C)[C@H]23)c1 [Example 1A],IC50,Thrombin receptor,1600 nM
Cc1ccccc1-c1ccc(/C=C/[C@H]2[C@@H]3CCCC[C@H]3C[C@H]3C(=O)O[C@H](C)[C@@H]23)nc1 [Example 1DK],IC50,Thrombin receptor,14 nM
Cc1cccc(/C=C/[C@H]2[C@H]3[C@H](C)OC(=O)[C@H]3C=C3CCCC[C@@H]32)n1 [Example 2E],IC50,Thrombin receptor,350 nM
C[C@H]1OC(=O)[C@@H]2C[C@@H]3CCCC[C@H]3[C@H](/C=C/c3ccc(-c4cc(C(F)(F)F)cc(C(F)(F)F)c4)cn3)[C@H]12 [Example 1ES],IC50,Thrombin receptor,4 nM
"C[C@H]1OC(=O)[C@@H]2C[C@@H]3CCCC[C@H]3[C@H](/C=C/c3ccc(-c4cccc(C(F)(F)F)c4)cn3)[C@H]12 [Example 4, (+)-(3R,3aS,4S,4aR,8aS,9aR)-Decahydro-4-[(E)-2-[5-[3-(trifluoromethyl)phenyl]-2-pyridinyl]ethenyl]-3-Methylnaphtho-[2,3-c]furan-1(3H)-one]",IC50,[1],67 nM
same,Ex-vivo C. Monkey Whole Blood PAI,"[2]; 3 mpk, oral in betahydroxypropylcyclodextrin as cosolvent",100%
C[C@H]1OC(=O)[C@@H]2C[C@@H]3CCCC[C@H]3[C@H](/C=C/c3ccc4cc(O)ccc4n3)[C@H]12 [Example 1BN],IC50,Thrombin receptor,6 nM
same,IC50,[1]; [3],100 to 300 nM
